Where two headings read alike, the source gives them in different places.
Experiments:
[1] = system: SUM-149 cells; experiment: ApoTox-Glo Triplex assay, SUM-149; type: cell-based, human; settings: SUM-149, 24 h
Protocol: (§1) Cells (9.5 × 10^4/well in 75 μL of fresh medium) were dispensed in 96-well black flat bottom (8807BC, Corning) plates. The cells were incubated for 12 h at 37°C and then treated with compounds (25 μL) for 24 h. DMSO was used as a negative control, and staurosporine was used as the positive control. […] Then, the Caspase-Glo® 3/7 Reagent was added; plates were mixed briefly by orbital shaking (300-500 rpm for ∼30 s), followed by an additional 30 min incubation at RT. Then luminescence, which correlates with caspase 3/7 activation, was recorded with a plate reader to […] apoptosis induction.

[2] = system: various breast cancer cell lines; experiment: Cell viability (CellTiter-Glo or PI staining), various breast cancer cell lines; type: cell-based, human; settings: for EC50: Homo sapiens, 72-h treatment, CellTiter-Glo or PI staining
Protocol: (§2) Either 1 × 10^3–4.8 × 10^3 or 4 × 10^2–1.2 × 10^3 cells were seeded to each well of 96- or 384-well white polystyrene flat-bottomed plates (3610 or 8804BC, Corning) in 100 μL or 30 μL media per well, respectively. The concentrations used were experimentally determined to ensure logarithmic growth during the duration of the experiment and prevent adverse effects on cell growth by DMSO exposure. The plates were incubated at 37°C in 5% CO2 for 24 h before treatment. Stock solutions of test compounds (10 mM in DMSO) in nine 3-fold serial dilutions were dispensed via pintool (Biomek). The final concentration of DMSO was 0.3% (v/v) in each well. The plates were incubated for 72 h at 37°C in 5% CO2 and then quenched with CellTiter-Glo® reagent (50 μL/well in 96-well plate, 30 μL/well in 384-well plate) at RT. The positive controls included staurosporine (10 μM), gambogic acid (10 μM), and a toxic quinoline generated in-house. Plates were then incubated at RT for 20 min and centrifuged at 1000 rpm for 1 min. The cytotoxicity assay was performed by using the CellTiter-Glo® Luminescent Cell Viability Assay kit (G7570, Promega, Madison, WI, United States) according to the manufacturer’s instructions. Luminescence was recorded in an Envision plate reader (PerkinElmer).
(§3) Cell viability assays (MTT or PI staining assays) in SUM-149, SUM-190, MDA-MB-231, and MCF10A cells were performed as we previously described ([Suarez-Arroyo et al., 2016]).
(§4) For the CTG assay, 3 or 4 replicate assays were conducted for each experimental condition, and a minimum of 3 independent experiments were conducted for cellular assays. The mean luminescence of each experimental treatment group was normalized as a percentage of the mean intensity of untreated controls. EC50 values (μM) were calculated by Pipeline Pilot Software (Accelrys, Enterprise Platform, San Diego, CA, United States). EC50 values (μM) from the viability assay were calculated from dose response curve-fitting via non-linear regression by using GraphPad Prism (Version 7.0, San Diego, CA, United States). For cell viability, colony formation, cell-cycle progression, cell death, and western blot assays, the analyses were performed via one-way or two-way ANOVA with post-testing for each condition (concentration, cell cycle stage, apoptotic event, cell line) by using GraphPad Prism.

[3] = system: MCF-7 cells; experiment: ROS measurement (CellROX green), MCF-7; type: cell-based, human; settings: for ROS increase (fold): GA-01, ergosterol, 5,6-dehydroergosterol 50 µM, EP 20 µM; for ROS formation reduction when co-treated with NAC: NAC 100 µM, TBHP 100 µM
Protocol: (§5) SUM-149 or MDA-MB-231 were plated in 96-well plates at a density of 2 × 10^4 and 1 × 10^4 cells/well, respectively, in black 96-well clear bottom tissue culture plates and incubated for 24 h at 37°C. The mRuby-Mito-7 plasmid was obtained from Addgene (#55874 from Michael Davidson). A stable clone of MCF-7 was generated by using Fugene 6 (Roche) to transfect cells (2 × 10^5) with plasmid (2.0 μg) under neomycin selection. A stable cell line was selected by using G418 (300 μg/mL) for 2 weeks, sorted by flow cytometry, and maintained under G418 thereafter. Transfected MCF-7 cells were plated at a density of 2 × 10^4 cells/well in black 96-well clear bottom tissue culture plates and incubated overnight at 37°C. To test for ROS formation and remove background, cells were replenished with fresh PBS with 2% FBS and treated with the desired compounds for 1 h at 37°C. DMSO (0.5%) was used as a negative control, while Menadione (Mena, at 10 μM) or t-Butyl hydroperoxide (TBHP) at 100 μM final concentration were used as a positive control. To evaluate the compounds’ effects on ROS formation inhibition, the free radical scavenger N-acetyl cysteine (NAC) was used. Cells were treated with or without NAC (500 μM or 100 μM) for 1 h, then CellROX® green reagent (Molecular Probes #C10444) was added to a final concentration of 5 μM, and cells were incubated for an additional 30 min at 37°C. Cells were then washed 2× with PBS, followed by fixation with 4% paraformaldehyde (v/v) for 15 min, and 2 more washes with PBS. Fluorescence intensity was measured in a Clariostar® plate reader (BMG LABTECH, Cary, NC, United States) at 535 nm.

[4] = system: MDA-MB-231 cells; experiment: De novo in-cell protein synthesis (click assay); type: cell-based, human; settings: 2 h; EP 20 μM
Protocol: First, 2.5 × 10^4 cells/well were seeded in 8-well μ-slides (Ibidi®, #80826) and incubated at 37°C for 12 h. The cells were treated with vehicle, compounds Ganoderic acid A or EP, or cycloheximide (positive control) for 2 h to determine protein synthesis as nascent proteins generated using Biovision’s EZClick^TM Global Protein Synthesis Assay Kit, (#K715-100, Milpitas, CA, United States). The assay includes a robust chemical method based on an alkyne containing o-propargyl-puromycin (OP-puro) probe, which stops translation by forming covalent conjugates with nascent polypeptide chains. Truncated polypeptides are rapidly turned over by the proteasome and can be detected based on the subsequent click reaction with a fluorescent azide. The reaction was conducted according to the manufacturer’s protocol. Cells were imaged at 20× with a Nikon C2 scanning confocal microscope, and the whole image montage was quantified by using Gen5 Software and Lionheart^TM FX Automated Microscope (BioTek, Winooski, VT, United States).

[5] = system: BJ cells; experiment: cells; type: cell-based
Protocol: as §2, §4

[6] = system: MDA-MB-231 cells; experiment: ApoTox-Glo Triplex assay, MDA-MB-231; type: cell-based, human; settings: MDA-MB-231, 24 h
Protocol: as §1

[7] = system: evaluated cell lines; experiment: Cell viability, evaluated cell lines (palmitic acid); type: cell-based; settings: tested concentration ≤100μM
Protocol: Either 1 × 10^3–4.8 × 10^3 or 4 × 10^2–1.2 × 10^3 cells were seeded to each well of 96- or 384-well white polystyrene flat-bottomed plates (3610 or 8804BC, Corning) in 100 μL or 30 μL media per well, respectively. The concentrations used were experimentally determined to ensure logarithmic growth during the duration of the experiment and prevent adverse effects on cell growth by DMSO exposure. The plates were incubated at 37°C in 5% CO2 for 24 h before treatment. Stock solutions of test compounds (10 mM in DMSO) in nine 3-fold serial dilutions were dispensed via pintool (Biomek). The final concentration of DMSO was 0.3% (v/v) in each well. […] Luminescence was recorded in an Envision plate reader (PerkinElmer). […]
as §4, with “For cell viability, colony formation, cell-cycle progression, cell death, and western blot assays, the analyses were performed via one-way or two-way ANOVA with post-testing for each condition (concentration, cell cycle stage, apoptotic event, cell line) by using GraphPad Prism.” left out

[8] = system: SUM-149 cells; experiment: Cell viability assay, SUM-149; type: cell-based, human
Protocol: as §2, §3, §4

[9] = physchem; settings: organic solvent or mixture
[10] = system: MDA-MB-231 cells; experiment: ROS measurement (CellROX green), MDA-MB-231; type: cell-based, human; settings: NAC 500 μM; menadione 10 μM
Protocol: as §5, with “Cells were treated with or without NAC (500 μM or 100 μM) for 1 h, then CellROX® green reagent (Molecular Probes #C10444) was added to a final concentration of 5 μM, and cells were incubated for an additional 30 min at 37°C. Cells were then washed 2× with PBS, followed by fixation with 4% paraformaldehyde (v/v) for 15 min, and 2 more washes with PBS.” left out

[11] = system: SUM-149 cells; experiment: ROS measurement (CellROX green), SUM-149; type: cell-based, human; settings: NAC 500 μM; EP 20 μM, menadione 10 μM
Protocol: as §5

Compound: C[C@H](CC(=O)C[C@@H](C)[C@H]1C[C@H](O)[C@@]2(C)C3=C(C(=O)C[C@]12C)[C@@]1(C)CCC(=O)C(C)(C)[C@@H]1C[C@@H]3O)C(=O)O [GA-01, ganoderic acid A]
- caspase 3/7 activity [1]: increase caspase 3/7 activity
- viability (GF-AFC) [1]: decrease viability
- EC50 [2]: > 50 µM
- ROS increase (fold) [3]: at least a twofold
- ROS formation reduction when co-treated with NAC [3]: 9–25%
- de novo protein synthesis inhibition [4]: do not inhibit
- cytotoxic effects in normal BJ cells ([5]; at the concentrations tested): did not induce cytotoxic effects
- caspase 3/7 activity [6]: increase caspase 3/7 activity
- viability (GF-AFC) [6]: decrease viability

Compound: CCCCCCCCCCCCCCCC(=O)O [palmitic acid]
- activity in the evaluated cell lines [7]: did not show activity
- activity in the evaluated cell lines ([7]; listed as Palmitic acid): No detected biological activity
- EC50 ([5]; Homo sapiens, BJ, Cell Titer Glo, 72-h treatment): > 100 µM

Compound: CC(C)[C@@H](C)/C=C/[C@@H](C)[C@H]1CC[C@H]2C3=CC=C4C[C@@H](O)CC[C@]4(C)[C@H]3CC[C@]12C [ergosterol]
- EC50 [2]: > 50 µM
- concentration from which cancer cell viability is significantly reduced ([2]; breast cancer cellular models): 64 µM
- concentration at which SUM-149 cell viability is significantly reduced ([8]; 72 h): 64 µM
- ROS increase (fold) [3]: at least a twofold
- ROS formation reduction when co-treated with NAC [3]: 9–25%
- cytotoxic effects in normal BJ cells [5]: did not induce cytotoxic effects

Compound: CC(C)[C@@H](C)/C=C/[C@@H](C)[C@H]1CC[C@H]2C34C=CC5(C[C@@H](OC(=O)NS(=O)(=O)c6ccccc6)CC[C@]5(C)C3CC[C@]12C)OO4 (stereo partly shown) [EP sulfonamide, ergosterol peroxide sulfonamide]
- EC50 ([8]; Homo sapiens, SUM149, SUM-149, Figure 10A, read-out: EC50, cancer cell viability (derivatives)): 12 µM
- cytotoxic effects in normal BJ cells ([5]; at the concentrations tested): minimal
- solubility [9]: ≥ 10 mM

Compound: CC(C)C(C)C=CC(C)C1CCC2C3=CCC4CC(O)CCC4(C)C3CCC21C (stereo not shown)
- EC50 [2]: > 50 µM
- ROS increase (fold) [3]: at least a twofold
- ROS formation reduction when co-treated with NAC [3]: 9–25%
- cytotoxic effects in normal BJ cells [5]: did not induce cytotoxic effects

Compound: CC(C)(C)OO [TBHP, t-Butyl hydroperoxide, reference compound]
- ROS formation reduction when co-treated with NAC [3]: ~50%

Compound: CC1=CC(=O)c2ccccc2C1=O [menadione, Menadione, reference compound]
- reduction in ROS formation in the presence of NAC [10]: about 20%
- reduction in ROS formation in the presence of NAC [11]: about 20%

From paper PMC6389703, “Identification of Biologically Active Ganoderma lucidum Compounds and Synthesis of Improved Derivatives That Confer Anti-cancer Activities in vitro” (Frontiers in Pharmacology, 2019)
